From patent US20230096028A1, “BICYCLIC HETEROCYCLYL COMPOUNDS AND USES THEREOF” (Revolution Medicines, Inc., priority 2019, published 2023)

Legend:
NCI-H358 xenograft = experiment: In vivo tumor cell growth, NSCLC NCI-H358 xenograft model; parameters: species or system female balb/c athymic nude mice
Method: Objective: To evaluate the efficacy of the SOS1 inhibitor Compound A alone and in combination with a KRAS G12C inhibitor MRTX1257 following oral administration in the human non-small cell lung cancer (NSCLC) NCI-H358 xenograft model in nude mice.
Methods: The effect of a SOS1 inhibitor of the present invention (Compound A) on tumor cell growth in vivo was evaluated in the NSCLC NCI-H358 xenograft model using female balb/c athymic nude mice (6-8 weeks old). Mice were implanted with H358 tumor cells in 50% matrigel (5^e6 cells/mouse) subcutaneously in the flank. Once tumors reached an average size of ˜200 mm^3, mice were randomized to treatment groups and administration of test article or vehicle (2% HPMC, 0.1% tween in 50 mM sodium citrate buffer pH 4). Body weight and tumor volume (using digital calipers) were measured twice a week until study endpoints. Compounds were administered by oral gavage daily.

SOS1 = target: T1, SOS1 (Homo sapiens, UniProt Q07889); experiment: Bodipy-FL-GTP Association Assay (SOS1-mediated exchange of KRAS-4B:GDP to KRAS-4B:GTP); format: biochemical; conditions: SOS1-mediated BODIPY FL GTP exchange on KRAS-4B, 22° C.
T1 construct: SOS1 (Cytoskeleton Inc., Cat. CS-GE02); purchased Cytoskeleton Inc. CS-GE02
T1 sequence (Q07889 564-1049 limits assumed): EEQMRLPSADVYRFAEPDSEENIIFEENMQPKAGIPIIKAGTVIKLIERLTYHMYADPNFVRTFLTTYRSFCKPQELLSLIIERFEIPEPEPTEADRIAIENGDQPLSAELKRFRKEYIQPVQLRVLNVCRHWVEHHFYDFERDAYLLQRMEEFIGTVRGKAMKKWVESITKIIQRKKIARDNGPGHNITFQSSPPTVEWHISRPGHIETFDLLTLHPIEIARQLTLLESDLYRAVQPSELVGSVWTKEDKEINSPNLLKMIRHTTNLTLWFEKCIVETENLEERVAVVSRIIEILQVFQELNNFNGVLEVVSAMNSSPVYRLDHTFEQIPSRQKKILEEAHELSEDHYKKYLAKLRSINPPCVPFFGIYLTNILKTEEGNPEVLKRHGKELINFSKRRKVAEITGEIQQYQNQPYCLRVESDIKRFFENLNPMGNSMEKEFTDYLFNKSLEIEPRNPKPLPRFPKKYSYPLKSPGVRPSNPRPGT
Method: A low IC50 value for a given compound is indicative of high potency of said compound in inhibiting the guanine nucleotide exchange factor (GEF) activity of SOS1 on KRAS-4B in this assay setting.
Reagents: BODIPY FL GTP (ThermoFisher Scientific, Cat. G12411); KRAS4-B (Cytoskeleton Inc., Cat. CSRS03); SOS1 (Cytoskeleton Inc., Cat. CS-GE02); 2×Assay Buffer: 40 mM Tris-HCl, pH 7.5; 100 mM NaCl; 20 mM MgCl2; 0.1 mg/mL BSA; 0.02% NP-40
Assay Procedure: Test compounds were dissolved in DMSO to create 20 mM master stocks. The stocks were diluted in a 3× dilution series in 100% DMSO to achieve 100× compound stocks. A 1 μl spot of each test compound stock was delivered to two adjacent wells of a 96-well assay plate prior to running the assay. Reaction Mix preparation: The following were mixed in order at room temperature to obtain the “Reaction Mix” (5.75 mL 2× Exchange Buffer; 3.22 mL MilliQ ddH2O; 3 μL 5 mM BODIPY FL GTP; 230 μL 50 μM KRAS-4B; 9.203 mL Total volume. Reaction initiation: 80 μL of Reaction Mix was pipetted into each well of a half-area black 96-well plate (Corning, Cat. 3686) containing either a 1 μL spot of DMSO or a 1 μL spot test compound at the concentrations listed above. 20 μL of 1 μM SOS1 was then added to each well to initiate the reaction. For the no GEF control wells this was replaced with 1× exchange buffer. Kinetic measurement: The reaction was monitored in a SpectraMax M2 Microplate Reader (Molecular Devices) under the following protocol: 5 second rapid circular mixing before first read; 61 readings, 30 seconds apart; Assay temperature: 22° C.; Excitation wavelength: 485 nm; Emission wavelength: 513 nm. Data Analysis: The Vmax values for the SOS1-mediated BODIPY FL GTP exchange curves in the presence of test compounds were normalized to the most dilute test sample columns or DMSO only control wells to give the % Activity for each concentration of test compound. Plots of % Activity vs. the Log 10 of the compound concentration were fit by non-linear regression to a 4-parameter logistic model.

| SMILES | tumor growth inhibition, TGI (NCI-H358 xenograft; 10 mg/kg, repeated daily dosing, single agent) [%] | tumor response (NCI-H358 xenograft; 50 mg/kg, H358 model) | IC50 (SOS1) [nM] |
| --- | --- | --- | --- |
| C=CC(=O)N1CCN(c2nc(OC[C@@H]3CCCN3C)nc3c2CCN(c2cccc4cccc(C)c24)C3)C[C@@H]1CC#N [MRTX1257] | 76 | achieved regressions | – |
| C[C@@H](Nc1ncnc2c1CN(C(=O)C1CCN(C)CC1)C2)c1cc(N)cc(C(F)(F)F)c1 [Example 17] | – | – | < 1000 |
| Cc1nc2c(c(N[C@H](C)c3cc(N)cc(C(F)(F)F)c3)n1)CN(C(=O)[C@H]1CCOC1)CC2 [Example 6, N-[(1R)-1-[3-amino-5-(trifluoromethyl)phenyl]ethyl]-2-methyl-6-(oxolane-3-carbonyl)-5H,6H,7H,8H-pyrido[4,3-d]pyrimidin-4-amine] | – | – | 1000 to 5000 |
| Cc1nc2c(c(N[C@H](C)c3cc(N)cc(C(F)(F)F)c3)n1)CN(C(=O)N1CCOCC1)C2 [Example 4, N-[(1R)-1-[3-amino-5-(trifluoromethyl)phenyl]ethyl]-2-methyl-6-(morpholine-4-carbonyl)-5H,6H,7H-pyrrolo[3,4-d]pyrimidin-4-amine] | – | – | < 1000 |
| C[C@@H](Nc1ncnc2c1CN(C(=O)N1CCOCC1)C2)c1cc(N)cc(C(F)(F)F)c1 [Example 16] | – | – | < 1000 |
